US20100137313A1 (ASTRAZENECA AB, priority 2008, published 2010)

Target: S. pneumoniae Topoisomerase IV ATPase (ParE) (Streptococcus pneumoniae serotype 4, UniProt Q59961)
Test: S. pneumoniae Topoisomerase IV ATPase inhibition
Assay type: biochemical
Conditions: values marked * are an average of two or more data points; for inhibition at 13 µM: read-out: % Inh (13 μM) of S. pneumoniae Topoisomerase IV ATPase
How it was run: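 ParE ATPase (1.25 nM) run with 160 μM ATP and 5 μg/ml sheared salmon sperm DNA in Tris pH 8.0, Mg2+, glycerol, DTT, Brij-35. Phosphate released read by malachite green/molybdate absorbance at 650 nm. IC50 from 10 compound concentrations; DMSO (2%) as 0% and EDTA (20 μM) as 100% inhibition.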

Sequence of S. pneumoniae Topoisomerase IV ATPase (ParE) (Q59961 whole entry): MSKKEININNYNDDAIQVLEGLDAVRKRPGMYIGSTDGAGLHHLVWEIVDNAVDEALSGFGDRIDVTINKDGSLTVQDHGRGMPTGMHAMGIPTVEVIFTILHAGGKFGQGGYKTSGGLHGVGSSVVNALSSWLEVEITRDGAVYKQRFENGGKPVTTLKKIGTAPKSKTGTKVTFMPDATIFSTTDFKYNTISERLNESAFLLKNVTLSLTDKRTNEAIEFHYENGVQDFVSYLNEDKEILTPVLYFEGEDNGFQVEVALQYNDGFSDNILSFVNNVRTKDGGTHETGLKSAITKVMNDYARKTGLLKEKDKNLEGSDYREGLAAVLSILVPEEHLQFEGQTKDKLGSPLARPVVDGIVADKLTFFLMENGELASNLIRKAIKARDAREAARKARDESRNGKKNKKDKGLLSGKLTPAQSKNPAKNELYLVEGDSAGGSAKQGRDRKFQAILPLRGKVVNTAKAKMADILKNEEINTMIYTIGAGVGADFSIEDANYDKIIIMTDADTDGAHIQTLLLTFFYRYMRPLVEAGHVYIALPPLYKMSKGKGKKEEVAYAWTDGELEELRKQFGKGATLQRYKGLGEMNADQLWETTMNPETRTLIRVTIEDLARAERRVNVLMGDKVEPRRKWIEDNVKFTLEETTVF

`COc1cc(Nc2ncc(-c3c[nH]c(=O)c(C(=O)O)c3)c(-n3ccc(C(F)(F)F)n3)n2)cc(OC)c1` [Example 1096, 5-(2-(3,5-Dimethoxyphenylamino)-4-(3-(trifluoromethyl)-1H-pyrazol-1-yl)pyrimidin-5-yl)-2-oxo-1,2-dihydropyridine-3-carboxylic acid] gave an inhibition at 13 µM of 100%.

With `COc1cc(Nc2ncc(-c3cc(C(=O)O)c(=O)n(CCS(C)(=O)=O)c3)c(-n3nc(C(F)(F)F)cc3C)n2)cc(OC)c1` [Example 1097, 5-(2-(3,5-Dimethoxyphenylamino)-4-(5-methyl-3-(trifluoromethyl)-1H-pyrazol-1-yl)pyrimidin-5-yl)-1-(2-(methylsulfonyl)ethyl)-2-oxo-1,2-dihydropyridine-3-carboxylic acid] the inhibition at 13 µM was 100%.

In the case of `COc1cc(Nc2ncc(-c3c[nH]c(=O)c(C(=O)O)c3)c(-n3nc(C(F)(F)F)cc3C)n2)cc(OC)c1` [Example 1098, 5-(2-(3,5-Dimethoxyphenylamino)-4-(5-methyl-3-(trifluoromethyl)-1H-pyrazol-1-yl)pyrimidin-5-yl)-2-oxo-1,2-dihydropyridine-3-carboxylic acid], the inhibition at 13 µM is reported as 100%.

Work on `O=C(O)CS(=O)(=O)c1cccc(-c2cnc(Nc3ccc(F)c(Cl)c3)nc2-n2ccc(C(F)(F)F)n2)c1` [Example 1099, 2-(3-(2-(3-chloro-4-fluorophenylamino)-4-(3-(trifluoromethyl)-1H-pyrazol-1-yl)pyrimidin-5yl)phenylsulfonyl)acetic acid] yielded an inhibition at 13 µM of 100%.

`CNC(=O)c1cc(-c2cnc(Nc3ccc(F)c(Cl)c3)nc2-n2ccc(C(F)(F)F)n2)cnc1OC` [Example 1100, 5-(2-(3-chloro-4-fluorophenylamino)-4-(3-(trifluoromethyl)-1H-pyrazol-1-yl)pyrimidin-5-yl)-2-methoxy-N-methylnicotinamide] showed an inhibition at 13 µM of 75%.

For `CONC(=O)c1cc(-c2cnc(Nc3ccc(F)c(Cl)c3)nc2-n2ccc(C(F)(F)F)n2)cnc1OC` [Example 1101, 5-(2-(3-chloro-4-fluorophenylamino)-4-(3-(trifluoromethyl)-1H-pyrazol-1-yl)pyrimidin-5-yl)-N,2-dimethoxynicotinamide], the inhibition at 13 µM was 82%.

Work on `CONC(=O)c1cc(-c2cnc(Nc3ccc(F)c(Cl)c3)nc2-n2nc(C(F)(F)F)cc2C)cnc1OC` [Example 1102, 5-(2-(3-chloro-4-fluorophenylamino)-4-(5-methyl-3-(trifluoromethyl)-1H-pyrazol-1-yl)pyrimidin-5-yl)-N,2-dimethoxynicotinamide] yielded an inhibition at 13 µM of 96%.

Work on `CNC(=O)c1cc(-c2cnc(Nc3ccc(F)c(Cl)c3)nc2-n2nc(C(F)(F)F)cc2C)cnc1OC` [Example 1103, 5-(2-(3-chloro-4-fluorophenylamino)-4-(5-methyl-3-(trifluoromethyl)-1H-pyrazol-1-yl)pyrimidin-5-yl)-2-methoxy-N-methylnicotinamide] yielded an inhibition at 13 µM of 76%.

With `COc1ncc(-c2cnc(Nc3ccc(F)c(Cl)c3)nc2-n2nc(C(F)(F)F)cc2C)cc1C(N)=O` [Example 1105, 5-(2-(3-chloro-4-fluorophenylamino)-4-(5-methyl-3-(trifluoromethyl)-1H-pyrazol-1-yl)pyrimidin-5-yl)-2-methoxynicotinamide] the inhibition at 13 µM was 82%.

Compound `COc1ccc(-c2cnc(Nc3ccc(F)c(Cl)c3)nc2-n2ccc(C(F)(F)F)n2)cc1C(N)=O` [Example 1106, 5-(2-(3-chloro-4-fluorophenylamino)-4-(3-(trifluoromethyl)-1H-pyrazol-1-yl)pyrimidin-5-yl)-2-methoxybenzamide] has an inhibition at 13 µM of 21%.

Work on `CCC(C)Nc1nc(Nc2ccc(F)c(Cl)c2)ncc1-c1cc2ccccc2o1` (stereo not drawn) [Example 1108, 5-(1-benzofuran-2-yl)-N′-butan-2-yl-N-(3-chloro-4-fluorophenyl)pyrimidine-2,4-diamine] yielded an inhibition at 13 µM of 18%.

Work on `CCC(C)Nc1nc(Nc2ccc(F)c(Cl)c2)ncc1-c1ccc(OC)c(C(F)(F)F)c1` (stereo not drawn) [Example 1109, N′-butan-2-yl-N-(3-chloro-4-fluorophenyl)-5-[4-methoxy-3-(trifluoromethyl)phenyl]pyrimidine-2,4-diamine] yielded an inhibition at 13 µM of 28%.

`CCC(C)Nc1nc(Nc2ccc(F)c(Cl)c2)ncc1-c1ccc(Cl)c(NC(=O)OC(C)(C)C)c1` (stereo not drawn) [Example 1110, tert-butyl N-[5-[4-(butan-2-ylamino)-2-[(3-chloro-4-fluorophenyl)amino]pyrimidin-5-yl]-2-chlorophenyl]carbamate] was tested, and the inhibition at 13 µM was 99%.

Compound `O=C(O)c1ccc(-c2cnc(Nc3ccc(F)c(Cl)c3)nc2-n2ccnc2)s1` [Example 1111, 5-[2-[(3-chloro-4-fluorophenyl)-amino]-4-imidazol-1-ylpyrimidin-5-yl]thiophene-2-carboxylic acid] has an inhibition at 13 µM of 88%.

`CCOC(=O)/C=C/c1cccc(-c2cnc(Nc3ccc(F)c(Cl)c3)nc2-n2cccn2)c1` [Example 1112, ethyl (E)-3-[3-[2-[(3-chloro-4-fluorophenyl)amino]-4-pyrazol-1-ylpyrimidin-5-yl]phenyl]prop-2-enoate] gave an inhibition at 13 µM of 71%.

`Fc1ccc(Nc2ncc(-c3cncnc3)c(-n3ccnc3)n2)cc1Cl` [Example 1113, N-(3-chloro-4-fluorophenyl)-4-imidazol-1-yl-5-pyrimidin-5-ylpyrimidin-2-amine] showed an inhibition at 13 µM of 72%.

Work on `Cc1cc(C(F)(F)F)nn1-c1nc(Nc2ccc(F)c(Cl)c2)ncc1-c1ccc(C(=O)O)s1` [Example 1114, 5-[2-[(3-chloro-4-fluorophenyl)amino]-4-[5-methyl-3-(trifluoromethyl)pyrazol-1-yl]pyrimidin-5-yl]thiophene-2-carboxylic acid] yielded an inhibition at 13 µM of 100%.

Work on `CS(=O)(=O)c1cc(Nc2ncc(-c3cccc(/C=C/C(=O)O)c3)c(-n3ccc(C(F)(F)F)n3)n2)ccc1F` [Example 1115, (E)-3-(3-(2-(4-fluoro-3-(methylsulfonyl)phenylamino)-4-(3-(trifluoromethyl)-1H-pyrazol-1-yl)pyrimidin-5-yl)phenyl)acrylic acid] yielded an inhibition at 13 µM of 93%.

`Cc1cc(C(F)(F)F)nn1-c1nc(Nc2cc(F)cc(C#N)c2)ncc1-c1cccc(/C=C/C(=O)O)c1` [Example 1116, (E)-3-(3-(2-(3-cyano-5-fluorophenylamino)-4-(5-methyl-3-(trifluoromethyl)-1H-pyrazol-1-yl)pyrimidin-5-yl)phenyl)acrylic acid] was tested, and the inhibition at 13 µM was 97%.

In the case of `O=C(O)/C=C/c1cccc(-c2cnc(Nc3ccc(F)c(Cl)c3)nc2-n2cccn2)c1` [Example 1120, (E)-3-[3-[2-[(3-chloro-4-fluorophenyl)amino]-4-pyrazol-1-ylpyrimidin-5-yl]phenyl]prop-2-enoic acid], the inhibition at 13 µM is reported as 79%.

Compound `Cc1cc(C(F)(F)F)nn1-c1nc(Nc2cc(F)cc(C#N)c2)ncc1-c1cncc(C(=O)O)c1` [Example 1121, 5-(2-(3-cyano-5-fluorophenylamino)-4-(5-methyl-3-(trifluoromethyl)-1H-pyrazol-1-yl)pyrimidin-5-yl)nicotinic acid] has an inhibition at 13 µM of 99%.

With `COc1ncc(-c2cnc(Nc3cc(Cl)cc(C#N)c3)nc2-n2nc(C(F)(F)F)cc2C)cc1C(=O)O` [Example 1122, 5-(2-(3-chloro-5-cyanophenylamino)-4-(5-methyl-3-(trifluoromethyl)-1H-pyrazol-1-yl)pyrimidin-5-yl)-2-methoxynicotinic acid] the inhibition at 13 µM was 100%.

In the case of `Cc1cc(C(F)(F)F)nn1-c1nc(Nc2cc(Cl)cc(C#N)c2)ncc1-c1cncc(C(=O)O)c1` [Example 1123, 5-(2-(3-chloro-5-cyanophenylamino)-4-(5-methyl-3-(trifluoromethyl)-1H-pyrazol-1-yl)pyrimidin-5-yl)nicotinic acid], the inhibition at 13 µM is reported as 100%.

Compound `NC(=O)c1cncc(-c2cnc(Nc3ccc(F)c(Cl)c3)nc2-n2ccc(C(F)(F)F)n2)c1` [Example 1124, 5-[2-[(3-chloro-4-fluorophenyl)amino]-4-[3-(trifluoromethyl)pyrazol-1-yl]pyrimidin-5-yl]pyridine-3-carboxamide] has an inhibition at 13 µM of 42%.

`CCNC(=O)c1cncc(-c2cnc(Nc3ccc(F)c(Cl)c3)nc2-n2ccc(C(F)(F)F)n2)c1` [Example 1125, 5-[2-[(3-chloro-4-fluorophenyl)amino]-4-[3-(trifluoromethyl)pyrazol-1-yl]pyrimidin-5-yl]-N-ethylpyridine-3-carboxamide] gave an inhibition at 13 µM of 51%.

Compound `COc1cc(Nc2ncc(-c3cncc(C(=O)O)c3)c(-n3nc(C)cc3C(F)F)n2)cc(OC)c1` [Example 1127, 5-(4-(5-(difluoromethyl)-3-methyl-1H-pyrazol-1-yl)-2-(3,5-dimethoxyphenylamino)pyrimidin-5-yl)nicotinic acid] has an inhibition at 13 µM of 100%.

For `COc1ccc(C(=O)O)cc1-c1cnc(Nc2ccc(F)c(Cl)c2)nc1-n1ccc(C(F)(F)F)n1` [Example 1128, 3-(2-(3-chloro-4-fluorophenylamino)-4-(3-(trifluoromethyl)-1H-pyrazol-1-yl)pyrimidin-5-yl)-4-methoxybenzoic acid], the “% Inh (13 μM) of S. pneumoniae Topoisomerase IV ATPase” value (13 µM) was 67%.

For `O=C(O)/C=C/c1cccc(-c2cnc(Nc3ccc(F)c(Cl)c3)cc2N2CCOCC2)c1` [Example 1129], the inhibition at 13 µM was 83%.

Compound `COCCOc1ncc(-c2cnc(Nc3ccc(F)c(Cl)c3)nc2-n2nc(C(F)(F)F)cc2C)cc1C(=O)O` [Example 1130, 5-(2-(3-chloro-4-fluorophenylamino)-4-(5-methyl-3-(trifluoromethyl)-1H-pyrazol-1-yl)pyrimidin-5-yl)-2-(2-methoxyethoxy)nicotinic acid] has an inhibition at 13 µM of 99%.

`COc1nc(OC)c(-c2cnc(Nc3ccc(F)c(Cl)c3)nc2-n2nc(C(F)(F)F)cc2C)cc1C(=O)O` [Example 1131, 5-(2-(3-chloro-4-fluorophenylamino)-4-(5-methyl-3-(trifluoromethyl)-1H-pyrazol-1-yl)pyrimidin-5-yl)-2,6-dimethoxynicotinic acid] was tested, and the inhibition at 13 µM was 100%.
